# Measured values reported in ChEMBL document CHEMBL1150095, “Antitumor activity and stereochemistry of acetylenic alcohols from the sponge Cribrochalina vasculum” (1995).
# Calls of active or inactive are those of the source. The rule behind the calls is not given here.
# Tests used:
# IGROV-1 = assay: Antitumor activity against human IGROV1 cells; type: functional
# NCI-H522 = assay: Antitumor activity against human NCI-H522 cells; type: functional
Compound,Activity (IGROV-1),Activity (NCI-H522)
C#C[C@@H](O)/C=C/CCCCCCCCCCCCCC(C)C,Active,Active
C#C[C@@H](O)/C=C/CCCCCCCCCCC(C)CCCC (stereo partly drawn),Active,Active
C#C[C@@H](O)/C=C/CCCCCCCCC(C)CCCCCCCC (stereo partly drawn),Active,Active
C#C[C@@H](O)/C=C/CCCCCCCCC/C=C\CCCCC(C)C,Active,Active
